Laboratory results reported in PubChem BioAssay (NCI).
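GI50 = concentration required for 50% inhibition of growth. At the TGI there is no net growth.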

Experiments:
Assay in all cases: NCI tumour cell line growth inhibition, 384-well format
[1] = test system: A498 renal
[2] = test system: A549 NSCLC
[3] = test system: ACHN renal
[4] = test system: BT-549 breast
[5] = test system: CAKI-1 renal
[6] = test system: CCRF-CEM leukemia
[7] = test system: COLO 205 colon
[8] = test system: DU-145 prostate
[9] = test system: EKVX NSCLC
[10] = test system: HCT-116 colon
[11] = test system: HCT-15 colon
[12] = test system: HL-60(TB) leukemia
[13] = test system: HOP-62 NSCLC
[14] = test system: HS 578T breast
[15] = test system: HT29 colon
[16] = test system: IGROV1 ovarian
[17] = test system: K-562 leukemia
[18] = test system: KM12 colon
[19] = test system: LOX IMVI melanoma
[20] = test system: M14 melanoma
[21] = test system: MALME-3M melanoma
[22] = test system: MCF7 breast
[23] = test system: MDA-MB-231 breast
[24] = test system: MDA-MB-435 melanoma
[25] = test system: MDA-MB-468 breast
[26] = test system: MOLT-4 leukemia
[27] = test system: NCI-H226 lung
[28] = test system: NCI-H23 lung
[29] = test system: NCI-H322M lung
[30] = test system: NCI-H460 NSCLC
[31] = test system: NCI-H522 lung
[32] = test system: NCI/ADR-RES ovarian
[33] = test system: OVCAR-3 ovarian
[34] = test system: OVCAR-4 ovarian
[35] = test system: PC-3 prostate
[36] = test system: RPMI-8226 leukemia
[37] = test system: RXF 393 renal
[38] = test system: SF-268 CNS
[39] = test system: SF-295 CNS
[40] = test system: SF-539 CNS
[41] = test system: SK-MEL-2 melanoma
[42] = test system: SK-MEL-28 melanoma
[43] = test system: SK-MEL-5 melanoma
[44] = test system: SK-OV-3 ovarian
[45] = test system: SN12C renal
[46] = test system: SNB-19 CNS
[47] = test system: SNB-75 CNS
[48] = test system: SR leukemia
[49] = test system: SW-620 colon
[50] = test system: T-47D breast
[51] = test system: TK-10 renal
[52] = test system: U251 glioblastoma
[53] = test system: UACC-257 melanoma
[54] = test system: UACC-62 melanoma
[55] = test system: HCC-2998 colon
[56] = test system: HOP-92 NSCLC
[57] = test system: OVCAR-5 ovarian
[58] = test system: OVCAR-8 ovarian

Work on `Cc1noc2c1-c1ccccc1C(c1ccc(Cl)cc1)=N[C@H]2CC(N)=O` yielded a GI50 [1] of 1410 nM, a TGI [1] of 94400 nM and a GI50 [2] of 10300 nM. The TGI [2] was greater than 100000 nM, the GI50 [3] was 11500 nM and the TGI [3] was greater than 100000 nM. It also gave a GI50 [4] of 292 nM, a TGI [4] of 18700 nM and a GI50 [5] of 227 nM. It also gave a TGI [5] of 54300 nM, a GI50 [6] of 629 nM and a TGI [6] of 22900 nM. The GI50 [7] was 780 nM, the TGI [7] was 29000 nM and the GI50 [8] was 23600 nM. The TGI [8] was greater than 100000 nM, the GI50 [9] was 36200 nM and the TGI [9] was greater than 100000 nM. The GI50 [10] was 13500 nM, the TGI [10] was 54700 nM and the GI50 [11] was 442 nM. It also gave a TGI [11] of 19500 nM, a GI50 [12] of 102 nM and a TGI [12] of 229 nM. For the same compound, the GI50 [13] was 400 nM, the TGI [13] was 34100 nM and the GI50 [14] was 292 nM. It also gave a TGI [14] of 28300 nM, a GI50 [15] of 508 nM and a TGI [15] of 59200 nM. For the same compound, the GI50 [16] was 564 nM, the TGI [16] was 30100 nM and the GI50 [17] was 697 nM. The TGI [17] was 28000 nM, the GI50 [18] was 6930 nM and the TGI [18] was 44300 nM. It also gave a GI50 [19] of 473 nM, a TGI [19] of 18100 nM and a GI50 [20] of 13600 nM. It also gave a TGI [20] greater than 100000 nM, a GI50 [21] of 16400 nM and a TGI [21] of 61400 nM. The GI50 [22] was 312 nM, the TGI [22] was 17000 nM and the GI50 [23] was 612 nM. The TGI [23] was 94400 nM, the GI50 [24] was 6550 nM and the TGI [24] was 43500 nM. It also gave a GI50 [25] of 685 nM, a TGI [25] of 23000 nM and a GI50 [26] of 549 nM. It also gave a TGI [26] of 15800 nM, a GI50 [27] of 12200 nM and a TGI [27] of 44000 nM. It also gave a GI50 [28] of 1140 nM, a TGI [28] of 26800 nM and a GI50 [29] of 3010 nM. For the same compound, the TGI [29] was greater than 100000 nM, the GI50 [30] was 19000 nM and the TGI [30] was greater than 100000 nM. For the same compound, the GI50 [31] was 40 nM, the TGI [31] was 455 nM and the GI50 [32] was 639 nM. It also gave a TGI [32] of 20400 nM, a GI50 [33] of 812 nM and a TGI [33] of 29800 nM. For the same compound, the GI50 [34] was 367 nM, the TGI [34] was 3290 nM and the GI50 [35] was 723 nM. It also gave a TGI [35] greater than 100000 nM, a GI50 [36] of 298 nM and a TGI [36] of 12500 nM. The GI50 [37] was 11600 nM, the TGI [37] was 34200 nM and the GI50 [38] was 18100 nM. The TGI [38] was 67700 nM, the GI50 [39] was 18800 nM and the TGI [39] was greater than 100000 nM. The GI50 [40] was 13000 nM, the TGI [40] was greater than 100000 nM and the GI50 [41] was 34200 nM. It also gave a TGI [41] of 53200 nM, a GI50 [42] of 21400 nM and a TGI [42] greater than 100000 nM. It also gave a GI50 [43] of 1030 nM, a TGI [43] of 21300 nM and a GI50 [44] of 491 nM. The TGI [44] was 38800 nM, the GI50 [45] was 24200 nM and the TGI [45] was greater than 100000 nM. It also gave a GI50 [46] of 4910 nM, a TGI [46] greater than 100000 nM and a GI50 [47] of 15700 nM. For the same compound, the TGI [47] was greater than 100000 nM, the GI50 [48] was 47.8 nM and the TGI [48] was 1430 nM. The GI50 [49] was 21800 nM, the TGI [49] was 71700 nM and the GI50 [50] was 6480 nM. The TGI [50] was 82000 nM, the GI50 [51] was 504 nM and the TGI [51] was 34300 nM. It also gave a GI50 [52] of 10200 nM, a TGI [52] greater than 100000 nM and a GI50 [53] of 16400 nM. It also gave a TGI [53] greater than 100000 nM, a GI50 [54] of 268 nM and a TGI [54] of 42100 nM.
For `CNCCn1c(=O)c2cc(OC)c(OC)cc2c2cnc3cc4c(cc3c21)OCO4`, the GI50 [1] was less than 10 nM, the TGI [1] was 20.9 nM and the GI50 [2] was less than 10 nM. The TGI [2] was 1080 nM, the GI50 [3] was less than 10 nM and the TGI [3] was less than 10 nM. It also gave a GI50 [4] of less than 10 nM, a TGI [4] of 20.4 nM and a GI50 [5] of less than 10 nM. For the same compound, the TGI [5] was 1490 nM, the GI50 [7] was less than 10 nM and the TGI [7] was 1330 nM. For the same compound, the GI50 [8] was less than 10 nM, the TGI [8] was less than 10 nM and the GI50 [9] was 21.9 nM. The TGI [9] was 51.6 nM, the GI50 [55] was 12.4 nM and the TGI [55] was 32.4 nM. The GI50 [10] was less than 10 nM, the TGI [10] was 19.2 nM and the GI50 [11] was less than 10 nM. For the same compound, the TGI [11] was 25.8 nM, the GI50 [12] was less than 10 nM and the TGI [12] was less than 10 nM. It also gave a GI50 [13] of less than 10 nM, a TGI [13] of less than 10 nM and a GI50 [56] of 14.1 nM. For the same compound, the TGI [56] was 1330 nM, the GI50 [14] was 33.5 nM and the TGI [14] was 1810 nM. For the same compound, the GI50 [15] was less than 10 nM, the TGI [15] was 20.5 nM and the GI50 [16] was 15.8 nM. The TGI [16] was 66.7 nM, the GI50 [18] was 10.8 nM and the TGI [18] was 43.2 nM. The GI50 [19] was less than 10 nM, the TGI [19] was 12 nM and the GI50 [20] was less than 10 nM. For the same compound, the TGI [20] was less than 10 nM, the GI50 [21] was 25.5 nM and the TGI [21] was 1810 nM. It also gave a GI50 [22] of less than 10 nM, a TGI [22] of 158 nM and a GI50 [23] of 35.8 nM. For the same compound, the TGI [23] was 139 nM, the GI50 [25] was less than 10 nM and the TGI [25] was less than 10 nM. The GI50 [26] was less than 10 nM, the TGI [26] was less than 10 nM and the GI50 [27] was 12.7 nM. For the same compound, the TGI [27] was 756 nM, the GI50 [28] was less than 10 nM and the TGI [28] was 16.2 nM. The GI50 [29] was 15.6 nM, the TGI [29] was 41.1 nM and the GI50 [30] was less than 10 nM. For the same compound, the TGI [30] was less than 10 nM, the GI50 [31] was less than 10 nM and the TGI [31] was 23.3 nM. For the same compound, the GI50 [32] was less than 10 nM, the TGI [32] was 42.9 nM and the GI50 [33] was less than 10 nM. The TGI [33] was 14.1 nM, the GI50 [34] was 21.7 nM and the TGI [34] was 42 nM. For the same compound, the GI50 [57] was 10.6 nM, the TGI [57] was 29.1 nM and the GI50 [58] was less than 10 nM. It also gave a TGI [58] of 33.8 nM, a GI50 [35] of 22.1 nM and a TGI [35] of 1340 nM. It also gave a GI50 [36] of less than 10 nM, a TGI [36] of less than 10 nM and a GI50 [37] of 13.7 nM. It also gave a TGI [37] of 43.1 nM, a GI50 [38] of less than 10 nM and a TGI [38] of 17.2 nM. It also gave a GI50 [39] of less than 10 nM, a TGI [39] of less than 10 nM and a GI50 [40] of less than 10 nM. The TGI [40] was 12.3 nM, the GI50 [42] was 28.8 nM and the TGI [42] was 1830 nM. It also gave a GI50 [43] of less than 10 nM, a TGI [43] of 14.8 nM and a GI50 [44] of less than 10 nM. It also gave a TGI [44] of 17.7 nM, a GI50 [45] of less than 10 nM and a TGI [45] of less than 10 nM. For the same compound, the GI50 [46] was less than 10 nM, the TGI [46] was 14.1 nM and the GI50 [47] was less than 10 nM. It also gave a TGI [47] of 23.3 nM, a GI50 [48] of less than 10 nM and a TGI [48] of less than 10 nM. For the same compound, the GI50 [50] was less than 10 nM, the TGI [50] was 242 nM and the GI50 [51] was 13.8 nM. For the same compound, the TGI [51] was 58.4 nM, the GI50 [52] was less than 10 nM and the TGI [52] was 12.3 nM. For the same compound, the GI50 [53] was 22.8 nM and the TGI [53] was 1310 nM.
